Assay [1] has as its system Nucleic Acid. Briefly: Binding affinity to d(CGATCG)2 assessed as average residence time. In kind it is nucleic-acid assay.
Assay [2] concerns Nucleic Acid. Briefly: Binding affinity to d(CGTACG)2 assessed as average residence time. In kind it is nucleic-acid assay.

Molecules are shown by their SMILES.

Regarding `C[C@@H]1O[C@@H](O[C@@H]2[C@H](C)O[C@@H](O[C@H]3C[C@](O)(C(=O)CO)Cc4c(O)c5c(c(O)c43)C(=O)c3ccccc3C5=O)C[C@@H]2O)C[C@H](N)[C@@H]1O`, the TIME in the assay with Nucleic Acid [1] stood at 0.000131 h; with Nucleic Acid [2] it was 5.83e-05 h. On to `COc1cccc2c1C(=O)c1c(O)c3c(c(O)c1C2=O)C[C@@](O)(C(=O)CO)C[C@@H]3O[C@H]1C[C@H](N)[C@H](O)[C@H](C)O1`, for which the TIME in the assay on Nucleic Acid [1] was 0.000231 h; in the assay on Nucleic Acid [2], 0.000347 h. As to `CC(=O)[C@]1(O)Cc2c(O)c3c(c(O)c2[C@@H](O[C@H]2C[C@H](O)[C@H](O[C@H]4C[C@H](N)[C@H](O)[C@H](C)O4)[C@H](C)O2)C1)C(=O)c1ccccc1C3=O`, the TIME in the assay with Nucleic Acid [1] and in the assay on Nucleic Acid [2] was 5e-05 h throughout. `COc1cccc2c1C(=O)c1c(O)c3c(c(O)c1C2=O)C[C@@](O)(C(=O)CO)C[C@@H]3O[C@H]1C[C@H](N2CCO[C@H](OC)C2)[C@H](O)[C@H](C)O1`: the TIME in the assay with Nucleic Acid [2] is 0.00139 h.
